Experimental data reported in patent US7205315B2, “Bicyclic imino acid derivatives as inhibitors of matrix metalloproteinases” (Sanofi-Aventis Deutschland GmbH, priority 2003, dated 2007).
Structures can show the parent of a compound that is named as a salt.

Legend:
Format in all cases: biochemical
[1] = molecular target: T1, catalytic domain of human neutrophilic collagenase (MMP-8) (Homo sapiens, UniProt P22894); assay: Enzyme activity of the catalytic domain of neutrophilic collagenase (MMP-8), fluorogenic substrate; settings: catalytic domain prepared as described by Ye et al., fluorescence 328/393 nm
T1 construct: of the catalytic domain of human stromelysin (MMP-3) and neutrophilic collagenase (MMP-8); made in house
Description: (§1) b) Preparation, and determination of the enzyme activity, of the catalytic domain of human stromelysin (MMP-3) and neutrophilic collagenase (MMP-8).
(§2) The two enzymes, i.e. stromelysin (MMP-3) and neutrophilic collagenase (MMP-8), were prepared as described by Ye et al. (Biochemistry; 31 (1992) pages 11231–11235). In order to measure the enzyme activity or the inhibitory effect on the enzyme, 10 μl of enzyme solution were incubated, for 15 minutes, with 10 μl of a 3% (v/v) buffered solution of dimethyl sulfoxide which contained the enzyme inhibitor, where appropriate. After 10 μl of a 3% (v/v) aqueous solution of dimethyl sulfoxide which contained 1 mmol of substrate/l had been added, the enzyme reaction was monitored by fluorescence spectroscopy (328 nm (ex)/393 nm(em)).
(§3) The enzyme activity is presented as increase in extinction/minute.
(§4) The buffer solution contained 0.05% Brij (Sigma, Deisenhofen, Germany) as well as 0.1 mol of tris/HCl/l, 0.1 mol of NaCl/l, 0.01 mol of CaCl2/l and 0.1 mol of piperazine-N,N′-bis[2-ethanesulfonic acid]/l (pH=7.5). The MMP-3 enzyme solution contained 2.3 μg, and the MMP-8 enzyme solution contained 0.6 μg, of one of the enzyme domains/ml prepared as described by Ye et al. The substrate solution contained 1 mmol of the fluorogenic substrate (7-methoxycoumarin-4-yl)acetyl-Pro-Leu-Gly-Leu-3-(2′,4′-dinitrophenyl)-L-2,3-diaminopropionyl-Ala-Arg-NH2/l (Bachem, Heidelberg, Germany).

[2] = molecular target: T2, catalytic domain of human stromelysin (MMP-3) (Homo sapiens, UniProt P08254); assay: Enzyme activity of the catalytic domain of human stromelysin (MMP-3), fluorogenic substrate; settings: catalytic domain prepared as described by Ye et al., fluorescence 328/393 nm
T2 construct: of the catalytic domain of human stromelysin (MMP-3) and neutrophilic collagenase (MMP-8); made in house
Description: as §1, §2, §3, §4

[3] = molecular target: T3, catalytic domain of human gelatinase B (MMP-9) (Homo sapiens, UniProt P14780); assay: Enzyme activity of the catalytic domain of human gelatinase B (MMP-9), fluorogenic substrate; settings: APMA-activated proenzyme, fluorescence 328/393 nm
T3 construct: enzyme activity of the catalytic domain of human gelatinase B (MMP-9); purchased Roche, Mannheim 1 758 896
Description: e) Determining the enzyme activity of the catalytic domain of human gelatinase B (MMP-9). […] Activation of the proenzyme:
2 parts by volume of proenzyme were incubated, at 37° C. for 4 hours, with 1 part by volume of APMA solution. The APMA solution was prepared from a 10 mmol/l solution of p-aminophenylmercuric acetate in 0.1 mmol/l NaOH by diluting it with 3 parts by volume of tris/HCl buffer, pH 7.5 (see below). The pH was adjusted to between 7.0 and 7.5 by adding 1 mmol/l HCl. After the enzyme had been activated, it was diluted with the tris/HCl buffer to a concentration of 4.2 mU/ml.
In order to measure the activity of the enzyme, 10 μl of enzyme solution were incubated for 15 minutes with 10 μl of a 3% (v/v) buffered solution of dimethyl sulfoxide (reaction 1). In order to measure the enzyme inhibitor activity, 10 μl of enzyme solution were incubated with 10 μl of a 3% (v/v) buffered solution of dimethyl sulfoxide which contained the enzyme inhibitor (reaction 2). Both in the case of reaction 1 and in the case of reaction 2, the enzyme reaction was monitored by fluorescence spectroscopy (328 nm (extinction)/393 nm (emission)) after 10 ul of a 3% (v/v) aqueous solution of dimethyl sulfoxide, which contained 0.15 mmol of the substrate/l, had been added.
The enzyme activity was presented as increase in extinction/minute.
The inhibitory effect was calculated as percentage inhibition in accordance with the following formula: % inhibition=100−[(increase in extinction/minute in reaction 2)/(increase in extinction/minute in reaction 1)×100].
The IC50, that is the concentration of inhibitor which is required for 50% inhibition of the enzyme activity, was determined graphically by plotting the percentage inhibitions at different inhibitor concentrations.
The buffer solution contained 0.05% Brij (Sigma, Deisenhofen, Germany) and also 0.1 mol of tris/HCl/l, 0.1 mol of NaCl/l, 0.01 mol of CaCl2/l (pH=7.5). The enzyme solution contained 4.2 mU of the enzyme domain/ml. The substrate solution contained 0.15 mmol of the fluorogenic substrate (7-methoxycoumarin-4-yl)acetyl-Pro-Leu-Gly-Leu-3-(2′,4′-dinitrophenyl)-L-2,3-diaminopropionyl-Ala-Arg-NH2/ (Bachem, Heidelberg, Germany).

T2 sequence (P08254 100-272 limits assumed): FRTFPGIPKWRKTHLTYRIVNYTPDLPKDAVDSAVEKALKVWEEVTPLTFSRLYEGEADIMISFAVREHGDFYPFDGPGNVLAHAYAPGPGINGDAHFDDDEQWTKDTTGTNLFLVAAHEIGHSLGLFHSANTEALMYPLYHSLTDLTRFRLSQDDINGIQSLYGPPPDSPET
T3 sequence (P14780 107-707 limits assumed): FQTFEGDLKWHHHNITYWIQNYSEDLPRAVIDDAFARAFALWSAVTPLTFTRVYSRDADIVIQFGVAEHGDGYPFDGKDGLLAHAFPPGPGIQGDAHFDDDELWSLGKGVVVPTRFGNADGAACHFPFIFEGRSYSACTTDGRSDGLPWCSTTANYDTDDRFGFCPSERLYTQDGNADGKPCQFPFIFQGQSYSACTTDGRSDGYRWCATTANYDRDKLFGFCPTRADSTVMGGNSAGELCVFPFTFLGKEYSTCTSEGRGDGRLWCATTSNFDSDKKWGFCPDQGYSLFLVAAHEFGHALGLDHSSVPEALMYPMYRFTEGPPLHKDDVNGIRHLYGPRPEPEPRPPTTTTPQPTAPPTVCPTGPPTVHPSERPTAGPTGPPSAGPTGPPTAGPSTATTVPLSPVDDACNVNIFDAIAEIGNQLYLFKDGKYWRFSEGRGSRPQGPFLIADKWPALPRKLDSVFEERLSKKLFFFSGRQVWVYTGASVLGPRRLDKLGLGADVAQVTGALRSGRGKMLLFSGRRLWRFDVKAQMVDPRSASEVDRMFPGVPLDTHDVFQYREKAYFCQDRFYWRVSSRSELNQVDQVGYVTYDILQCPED
T1 sequence (P22894 100-262 limits assumed): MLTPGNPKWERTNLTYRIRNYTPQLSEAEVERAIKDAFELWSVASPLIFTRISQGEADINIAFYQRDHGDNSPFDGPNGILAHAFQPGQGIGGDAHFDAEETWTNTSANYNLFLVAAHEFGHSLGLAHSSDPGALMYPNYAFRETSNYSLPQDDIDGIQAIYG

Row | IC50 [1] | IC50 [2] | IC50 [3] | SMILES
1 | 10 nM | 59 nM | 5 nM | O=C(NO)C1C2CCCCC2CCN1S(=O)(=O)c1ccc(-c2ccc(OC(F)(F)F)cc2)cc1 (stereo not drawn) [Example 19, 2-(4′-trifluoromethoxybiphenyl-4-sulfonyl)decahydroisoquinoline-1-(N-hydroxy)carboxamide]
2 | 2000 nM | 10000 nM | 4000 nM | O=C(NO)[C@@H]1[C@@H]2CCCC[C@@H]2CCN1S(=O)(=O)c1ccc(-c2ccc(Cl)cc2)cc1 (single isomer, unassigned) [Example 15, 2-(4′-chlorobiphenyl-4-sulfonyl)decahydroisoquinoline-1-(N-hydroxy)-carboxamide]
3 | 3 nM | 26 nM | 2 nM | O=C(NO)C1C2CCCCC2CCN1S(=O)(=O)c1ccc(Oc2ccc(F)cc2)cc1 (stereo not drawn) [Example 20, 2-[4-(4-fluorophenoxy)benzenesulfonyl]decahydroisoquinoline-1-(N-hydroxy)carboxamide]
4 | 4 nM | 30 nM | 2 nM | O=C(NO)C1C2CCCCC2CCN1S(=O)(=O)c1ccc(Oc2ccc(OCC(F)(F)F)cc2)cc1 (stereo not drawn) [Example 13, 2-{4-[4-(2,2,2-trifluoroethoxy)phenoxy]benzenesulfonyl}decahydroisoquinoline-1-(N-hydroxy)carboxamide]
5 | 16 nM | 41 nM | 3 nM | N#Cc1ccc(Oc2ccc(S(=O)(=O)N3CCC4CCCCC4C3C(=O)NO)cc2)cc1 (stereo not drawn) [Example 26, 2-[4-(4-cyanophenoxy)benzenesulfonyl]decahydroisoquinoline-1-(N-hydroxy)carboxamide]
6 | 9 nM | 50 nM | 2 nM | O=C(NO)C1C2CCCCC2CCN1S(=O)(=O)c1ccc(Oc2ccc(OC(F)(F)F)cc2)cc1 (stereo not drawn) [Example 23, 2-[4-(4-trifluoromethoxyphenoxy)benzenesulfonyl]decahydroisoquinoline-1-(N-hydroxy)carboxamide]
7 | 2.2 nM | 25 nM | 3.5 nM | O=C(NO)[C@H]1[C@H]2CCCC[C@H]2CCN1S(=O)(=O)c1ccc(-c2ccc(Cl)cc2)cc1 (single isomer, unassigned) [Example 14, 2-(4′-chlorobiphenyl-4-sulfonyl)decahydroisoquinoline-1-(N-hydroxy)-carboxamide]
8 | 2.5 nM | 25 nM | 2 nM | COc1ccc(Oc2ccc(S(=O)(=O)N3CCC4CCCCC4C3C(=O)NO)cc2)cc1 (stereo not drawn) [Example 11, 2-[4-(4-methoxyphenoxy)benzenesulfonyl]decahydroisoquinoline-1-(N-hydroxy)carboxamide]
9 | 2.3 nM | 23 nM | 0.45 nM | O=C(NO)[C@H]1[C@H]2CCCC[C@H]2CCN1S(=O)(=O)c1ccc(Oc2ccc(F)cc2)cc1 [Example 21, 2-[4-(4-fluorophenoxy)benzenesulfonyl]decahydroisoquinoline-1-(N-hydroxy)carboxamide]
10 | 22 nM | 160 nM | 12 nM | O=C(NO)C1C2CCCCC2CCN1S(=O)(=O)c1ccc(Oc2ccncc2)cc1 (stereo not drawn) [Example 9, 2-[4-(pyridin-4-yloxy)benzenesulfonyl]decahydroisoquinoline-1-(N-hydroxy)carboxamide trifluoroacetate]
11 | 3 nM | 40 nM | 100 nM | O=C(NO)C1C2CCCCC2CCN1S(=O)(=O)c1ccc(-c2ccc(Cl)cc2)cc1 (stereo not drawn) [Example 3, 2-(4′-chlorobiphenyl-4-sulfonyl)decahydroisoquinoline-1-(N-hydroxy)-carboxamide]
12 | 13 nM | 65 nM | 3 nM | O=C(NO)C1C2CCCCC2CCN1S(=O)(=O)CCc1ccc(-c2ccc(Cl)cc2)cc1 (stereo not drawn) [Example 7, 2-[2-(4′-chlorobiphenyl-4-yl)ethanesulfonyl]decahydroisoquinoline-1-(N-hydroxy)carboxamide]
13 | 2.5 nM | 28 nM | 1.2 nM | O=C(NO)C1C2CCCCC2CCN1S(=O)(=O)c1ccc(Oc2ccccc2)nc1 (stereo not drawn) [Example 5, 2-(6-phenoxypyridine-3-sulfonyl)decahydroisoquinoline-1-(N-hydroxy)-carboxamide trifluoroacetate]
